Measured values: patent US5571942A, “Ring-substituted 2-amino-1,2,3,4-tetrahydronaphthalenes and 3-aminochromanes” (Eli Lilly and Company, priority 1995, dated 1996)

How the values were obtained:
Design in all cases: species or system rat (male Sprague-Dawley)
5-HT1A receptors [1] = biological target: T1, 5-HT1A receptors (Rattus norvegicus, UniProt P19327); test: in vitro binding: inhibition of 3H-8-OH-DPAT binding to synaptosomal membranes from rat cerebral cortex; settings: 3H-8-OH-DPAT 2 nM, 37° C., 10 min, pH 7.4
T1 construct: from tissue; host or cells: cerebral cortex (crude synaptosomal membranes) of male Sprague-Dawley rats
T1 sequence (P19327 1-422): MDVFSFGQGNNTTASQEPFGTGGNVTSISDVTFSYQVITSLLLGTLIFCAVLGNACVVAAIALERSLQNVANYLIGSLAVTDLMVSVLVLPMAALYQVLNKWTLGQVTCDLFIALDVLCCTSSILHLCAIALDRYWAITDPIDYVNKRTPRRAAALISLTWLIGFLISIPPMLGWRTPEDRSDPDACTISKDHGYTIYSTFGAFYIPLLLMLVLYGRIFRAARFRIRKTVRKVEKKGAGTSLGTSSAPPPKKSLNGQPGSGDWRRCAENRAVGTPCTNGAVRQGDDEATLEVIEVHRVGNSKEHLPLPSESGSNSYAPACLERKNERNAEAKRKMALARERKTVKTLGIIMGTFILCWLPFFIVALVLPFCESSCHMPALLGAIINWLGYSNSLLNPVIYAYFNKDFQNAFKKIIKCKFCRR
Description: Sites specifically labeled by tritiated 8-hydroxy-2-dipropylamino-1,2,3,4-tetrahydronaphthalene (^3 H-8-OH-DPAT) have been identified as 5-HT1A receptors. This general procedure is set forth in Wong et al., J. Neural Transm. 71:207-218 (1988).
Male Sprague-Dawley rats (110-150 g) from Harlan Industries (Cumberland, Ind.) were fed a Purina Chow ad libitum for at least 3 days before being used in the studies. Rats were killed by decapitation. The brains were rapidly removed, and the cerebral cortices were dissected out at 4° C.
Brain tissues were homogenized in 0.32M sucrose. After centrifugation at 1000×g for 10 min and then at 17000×g for 20 min, a crude synaptosomal fraction was sedimented. The pellet was suspended in 100 vol of 50 mM Tris-HCl, pH 7.4, incubated at 37° C. for 10 min, and centrifuged at 50000×g for 10 min. The process was repeated and the final pellet was suspended in ice-chilled 50 mM Tris-HCl, pH 7.4.
Binding of ^3 H-8-OH-DPAT was performed according to the previously described method [Wong et al., J. Neural Transm. 64:251-269 (1985)]. Briefly, synaptosomal membranes isolated from cerebral cortex were incubated at 37° C. for 10 min. in 2 ml of 50 mM Tris-HCl, pH 7.4; 10 mM pargyline; 0.6 mM ascorbic acid; 5 mM CaCl2; 2 nM ^3 H-8-OH-DPAT and 0.1 to 1000 nm of the compound of interest. Binding was terminated by filtering samples under reduced pressure through glass fiber (GFB) filters. The filters were washed twice with 5 ml of ice cold buffer and placed in scintillation vials with 10 ml of PCS (Amersham/Searle) scintillation fluid. Radioactivity was measured with a liquid scintillation spectrometer. Unlabeled 8-OH-DPAT at 10 μM was also included in separate samples to establish non-specific binding. Specific binding of ^3 H-8-OH-DPAT is defined as the difference of radioactivity bound in the absence and in the presence of 10 μM unlabeled 8-OH-DPAT.
(§1) The results provided in columns 3-5 are indicative of 5-HT1A agonist activity.

5-HT1A receptors [2] = biological target: T1, 5-HT1A receptors; test: in vivo lowering of brain 5-HIAA levels (5-HT1A agonist activity); settings: sc, one hour after treatment
Experimental: (§2) Compounds of this invention were also examined for their in vivo effects on brain 5-HIAA and serum corticosterone levels. Male Sprague-Dawley rats weighting 150-200 g were administered subcutaneously or orally with aqueous solutions of the test compound. One hour after treatment, the rats were decapitated and trunk blood collected. The blood was allowed to clot and then was centrifuged to separate the serum. The concentration of corticosterone in the serum was determined by the spectrofluorometric method of Solem, J. H.; Brinck-Johnsen, T., Scand. J. Clin. Invest. [Suppl. 80], 17, 1 (1965). The whole brains from the decapitated rats were quickly removed, frozen on dry ice, and stored at -15° C. 5-HIAA concentrations were measured by liquid chromatography with electrochemical detection as described by Fuller, R. W.; Snoddy, H. D.; Perry, K. W., Life Sci. 40, 1921 (1987).
as §1

5-HT1A receptors [3] = biological target: T1, 5-HT1A receptors; test: in vivo elevation of serum corticosterone levels (5-HT1A agonist activity); settings: sc, one hour after treatment
Experimental: as §2, §1

Structure (SMILES) | IC50 (5-HT1A receptors [1]) | 5-HIAA MED (minimum effective dose lowering brain 5-HIAA levels) (5-HT1A receptors [2]) | Corticosterone MED (minimum effective dose elevating serum corticosterone levels) (5-HT1A receptors [3])
CCCN(CCC)C1CCc2cccc(-c3nocc3C)c2C1 (stereo not drawn) [Example 26, 2-Di-n-propylamino-8-(4-methylisoxazol-3-yl)-1,2,3,4-tetrahydronaphthalene] | 6.4 nM | 1.0 mg/kg | > 1.0 mg/kg
CCCN(CCC)C1CCc2cccc(-c3cccnc3)c2C1 (stereo not drawn) [Example 14, 2-Di-n-propylamino-8-(pyrid-3-yl)-1,2,3,4-tetrahydronaphthalene] | 7.2 nM | > 1.0 mg/kg | > 1.0 mg/kg
CCCN(CCC)C1CCc2cccc(-c3cc(C)on3)c2C1 (stereo not drawn) [Example 28, 2-Di-n-propylamino-8-(5-methylisoxazol-3-yl)-1,2,3,4-tetrahydronaphthalene] | 3.8 nM | > 1.0 mg/kg | > 1.0 mg/kg
